Assay results reported in paper PMC9032934 (Pharmaceutics, 2022).
Non-standard residues stand in square brackets, D forms with d. Residues, ends and D or L forms follow the SMILES beside them.

Assays:
Caco-2 cells [1] = test: Cell viability by DAPI labeling in flow cytometry, Caco-2; conditions: CPZ 20 μM, NYS 50 μM, MBCD 5 mM, compared to non-treated cells (80 ± 10%)
Procedure: At the end of each incubation, cells were rinsed twice with D-PBS. […] After the addition of 400 μL of D-PBS supplemented with 5% (v/v) FBS, cells were transferred to 1.5 mL tubes and centrifuged (10 min, 4 °C, 1500 rpm). Cell pellets were resumed in 500 μL of D-PBS supplemented with 0.5% (v/v) FBS and 0.1% (v/v) 4′,6-diamidino-2-phenylindole (DAPI solution, Sigma-Aldrich, (Saint-Quentin-Fallavier, France), transferred to round-bottom polystyrene Falcon tubes (Thermo Fisher Scientific Inc., Rockford, IL, USA) and analyzed with a Fortessa LSR cytometer (Becton Dickinson, Pont-de-Claix, France; DAPI: λex = 405 nm/λem = 425–475 nm; TAMRA: λex = 561 nm/λem = 605–625 nm). Damaged cells were excluded with the DAPI labeling. For each condition, 10,000 events were recorded.

Caco-2 cells [2] = test: Cellular uptake of Tamra-labelled peptides by flow cytometry, Caco-2; type: cell-based, human; conditions: for decrease in transfection efficiency with 10% serum / decrease in transfection efficiency with 20% serum: Tamra-peptides 5 µM, 3 h; for decrease in transfection efficiency with 10% serum: OptiMEM + 10% (v/v) FBS vs 0%; for decrease in transfection efficiency with 20% serum: OptiMEM + 20% (v/v) FBS vs 0%
Procedure: (§1) Next, 48 h post-seeding, cells were rinsed twice with D-PBS and then incubated with 500 μL of Tamra-CPP-iCAL36 solution at the indicated conditions.
(§2) Standard transfection and kinetic measurements.
(§3) Transfection in the presence of serum.

Calu-3 cells = test: Cellular uptake of Tamra-labelled peptides by flow cytometry, Calu-3; type: cell-based, human
Procedure: as §1, §2, §3

TatRI-iCAL36 = molecular target: T1, TatRI-iCAL36 (N-terminal D-amino acid retro-inverso Tat (qpprrrqrrkkrg)); test: fluorescence polarization
T1 chain: ANSRWPTSII

C[C@@H]1[C@H](O)[C@@H](C)/C=C/C=C/CC/C=C/C=C/C=C/C=C/C(O[C@H]2O[C@H](C)[C@@H](O)[C@H](N)[C@@H]2O)CC2O[C@](O)(CC(O)C(O)CCC(O)CC(O)CC(O)CC(=O)O[C@H]1C)CC(O)C2C(=O)O (some centres unmarked) [NYS, nystatin]
loss of viability (slight cytotoxicity) by endocytosis inhibitors (Caco-2 cells [1]): 5–20%

CC[C@H](C)[C@H](NC(=O)[C@@H](NC(=O)[C@H](CO)NC(=O)[C@@H](NC(=O)[C@@H]1CCCN1C(=O)[C@H](Cc1c[nH]c2ccccc12)NC(=O)[C@H](CCCNC(=N)N)NC(=O)[C@H](CO)NC(=O)[C@H](CC(N)=O)NC(=O)[C@H](C)NC(=O)CNC(=O)[C@@H](CCCNC(=N)N)NC(=O)[C@@H](CCCCN)NC(=O)[C@@H](CCCCN)NC(=O)[C@@H](CCCNC(=N)N)NC(=O)[C@@H](CCCNC(=N)N)NC(=O)[C@@H](CCC(N)=O)NC(=O)[C@@H](CCCNC(=N)N)NC(=O)[C@@H](CCCNC(=N)N)NC(=O)[C@@H](CCCNC(=N)N)NC(=O)[C@H]1CCCN1C(=O)[C@H]1CCCN1C(=O)[C@H](N)CCC(N)=O)[C@@H](C)O)[C@@H](C)CC)C(=O)O [TatRI-iCAL36] (H-[dQ][dP][dP][dR][dR][dR][dQ][dR][dR][dK][dK][dR]GANSRWPTSII-OH)
intracellular fluorescence without vs with chloroquine, peptide at 1 µM (Caco-2 cells [2]; Tamra-TatRI-iCAL36 1 µM, CQ 100 µM, n = 4, one-way ANOVA): no statistical difference
decrease in transfection efficiency with 10% serum (Caco-2 cells [2]; 37 °C, n = 4): no significant difference
decrease in transfection efficiency with 20% serum (Caco-2 cells [2]; 37 °C, n = 4): 18%
increase in signal intensity (internalization) with longer incubation time (4.5 h) (Caco-2 cells [2]; Tamra-peptides in OptiMEM, 4.5 h vs […], 37 °C, n = 3 (Figure S2A)): ~ 3 fold

GALFLGWLGAAGSTMGAWSQPKKKRKV-ANSRWPTSII [MPG-iCAL36, MPG cell-penetrating peptide conjugated to iCAL36]
cellular internalization (Tamra fluorescence), comparison between peptides (Caco-2 cells [2]; Tamra-labelled peptides 1 µM or 5 µM in OptiMEM, […], 37 °C, trypsinization, mean ± SD, n = 4): superior to Tat-iCAL36 and its analogs
decrease in transfection efficiency with 10% serum (Caco-2 cells [2]; 37 °C, n = 4): ~ 30%
decrease in transfection efficiency with 20% serum (Caco-2 cells [2]; 37 °C, n = 4): ~ 50%
cellular internalization (Tamra fluorescence), comparison between peptides (Calu-3 cells; Calu-3, Tamra-labelled peptides 1 µM or 5 µM in OptiMEM, […], 37 °C, trypsinization, flow cytometry, mean ± SD, n = 4): superior to Tat-iCAL36 and its analogs
decrease in transfection efficiency with 10% serum (Calu-3 cells; Calu-3, Tamra-peptides 5 µM, 3 h, OptiMEM + 10% (v/v) FBS vs 0%, 37 °C, flow cytometry, n = 4): ~ 20%
decrease in transfection efficiency with 20% serum (Calu-3 cells; Calu-3, Tamra-peptides 5 µM, 3 h, OptiMEM + 20% (v/v) FBS vs 0%, 37 °C, flow cytometry, n = 4): ~ 30%

GRKKRRQRRRPPQ-ANSRWPTSII (GRKKRRQRRRPPQANSRWPTSII) [Tat-iCAL36, Tat cell-penetrating peptide conjugated to the N-terminus of iCAL36]
increase in signal intensity (internalization) with longer incubation time (4.5 h) (Calu-3 cells): ~ 5.7 fold

B1: NHERF2 PDZ1 (N2P1) PDZ1 (protein)
chain: RPRLCRLVRGEQGYGFHLHGEKGRRGQFIRRVEPGSPAEAAALRAGDRLVEVNGVNVEGETHHQVVQRIKAVEGQTRLLVVDQETD
Ki (TatRI-iCAL36): > 5 mM

B2: NHERF2 PDZ2 (N2P2) PDZ2 (protein)
chain: LRPRLCHLRKGPQGYGFNLHSDKSRPGQYIRSVDPGSPAARSGLRAQDRLIEVNGQNVEGLRHAEVVASIKAREDEARLLVVDPETD
Ki (TatRI-iCAL36): > 5 mM
